From ChEMBL document CHEMBL1201861, “Genomics of Drug Sensitity in Cancer screening data, Wellcome Trust Sanger Institute”

Experiments:
Format in all cases: functional, cell-based
[1] = test system: DG-75; test: cells; details: Homo sapiens;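 also: growth inhibition of DG-75 cells, read out with a cell viability assay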
Description: SANGER: Inhibition of human DG-75 cell growth in a cell viability assay.

[2] = test system: EHEB; test: cells; details: Homo sapiens;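 also: growth inhibition of human EHEB cells, read out with a cell viability assay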
Description: SANGER: Inhibition of human EHEB cell growth in a cell viability assay.

[3] = test system: IM-9; test: SANGER: Inhibition of human IM-9 cell growth in a cell viability assay.
[4] = test system: KMS-12-PE; test: cells; details: Homo sapiens;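 also: growth inhibition of human KMS-12-PE cells, measured with a cell viability assay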
Description: SANGER: Inhibition of human KMS-12-PE cell growth in a cell viability assay.

[5] = test system: L-540; test: cells; details: Homo sapiens;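 also: growth inhibition of the human L-540 cell line, read out with a viability assay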
Description: SANGER: Inhibition of human L-540 cell growth in a cell viability assay.

[6] = test system: LB996-RCC; test: cells; details: Homo sapiens
Description: SANGER: Inhibition of human LB996-RCC cell growth in a cell viability assay.

[7] = test system: LOUCY; test: cells; details: Homo sapiens;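 also: growth inhibition of human LOUCY cells, read out with a cell viability assay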
Description: SANGER: Inhibition of human LOUCY cell growth in a cell viability assay.

[8] = test system: MC-CAR; test: cells; details: Homo sapiens;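 also: growth inhibition of the human MC-CAR cell line, read out by a cell viability assay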
Description: SANGER: Inhibition of human MC-CAR cell growth in a cell viability assay.

[9] = test system: MHH-CALL-2; test: cells; details: Homo sapiens;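 also: growth inhibition of the cell line, read out in a cell viability assay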
Description: SANGER: Inhibition of human MHH-CALL-2 cell growth in a cell viability assay.

[10] = test system: NB17; test: cells; details: Homo sapiens;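 also: growth inhibition of NB17 cells, read out with a cell viability assay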
Description: SANGER: Inhibition of human NB17 cell growth in a cell viability assay.

[11] = test system: NB7; test: cells; details: Homo sapiens;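 also: growth inhibition of NB7 cells, read out with a cell viability assay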
Description: SANGER: Inhibition of human NB7 cell growth in a cell viability assay.

[12] = test system: NCI-H1417; test: cells; details: Homo sapiens;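 also: human NCI-H1417 cells, growth inhibition determined with a cell viability readout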
Description: SANGER: Inhibition of human NCI-H1417 cell growth in a cell viability assay.

[13] = test system: NCI-H187; test: cells; details: Homo sapiens;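 also: growth inhibition of NCI-H187 cells, read out as cell viability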
Description: SANGER: Inhibition of human NCI-H187 cell growth in a cell viability assay.

[14] = test system: NCI-H1963; test: cells; details: Homo sapiens;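 also: cell growth inhibition of the human line, determined with a cell viability assay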
Description: SANGER: Inhibition of human NCI-H1963 cell growth in a cell viability assay.

[15] = test system: NCI-H322M; test: cells; details: Homo sapiens;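 also: cell viability assay measuring inhibition of growth of human NCI-H322M cells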
Description: SANGER: Inhibition of human NCI-H322M cell growth in a cell viability assay.

[16] = test system: NCI-H524; test: cells; details: Homo sapiens;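 also: growth inhibition of human NCI-H524 cells, read out through a cell viability assay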
Description: SANGER: Inhibition of human NCI-H524 cell growth in a cell viability assay.

[17] = test system: NCI-H719; test: cells; details: Homo sapiens;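 also: growth inhibition of the cultured cell line, read out with a viability assay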
Description: SANGER: Inhibition of human NCI-H719 cell growth in a cell viability assay.

[18] = test system: NCI-H889; test: cells; details: Homo sapiens;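 also: cell growth inhibition of the cell line, read out with a viability assay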
Description: SANGER: Inhibition of human NCI-H889 cell growth in a cell viability assay.

[19] = test system: P31-FUJ; test: cells; details: Homo sapiens;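 also: growth inhibition of P31-FUJ cells, read out with a viability assay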
Description: SANGER: Inhibition of human P31-FUJ cell growth in a cell viability assay.

[20] = test system: SCLC-21H; test: cells; details: Homo sapiens;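 also: growth inhibition of cultured human SCLC-21H cells, read out with a cell viability assay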
Description: SANGER: Inhibition of human SCLC-21H cell growth in a cell viability assay.

[21] = test system: SNU-C1; test: cells; details: Homo sapiens;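 also: growth inhibition of SNU-C1 human cells, read out by a cell viability assay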
Description: SANGER: Inhibition of human SNU-C1 cell growth in a cell viability assay.

[22] = test system: A253 cell line; test: cells; details: Homo sapiens;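 also: growth inhibition of A253 cells, read out with a cell viability assay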
Description: SANGER: Inhibition of human A253 cell growth in a cell viability assay.

[23] = test system: U-698-M; test: cells; details: Homo sapiens
Description: SANGER: Inhibition of human U-698-M cell growth in a cell viability assay.

[24] = test system: CHP-126; test: cells; details: Homo sapiens
Description: SANGER: Inhibition of human CHP-126 cell growth in a cell viability assay.

[25] = test system: D-392MG; test: cells; details: Homo sapiens
[26] = test system: D-542MG; test: cells; details: Homo sapiens
Description: SANGER: Inhibition of human D-542MG cell growth in a cell viability assay.

Compound | IC50 [1] | IC50 [2] | IC50 [3] | IC50 [4] | IC50 [5] | IC50 [6] | IC50 [7] | IC50 [8] | IC50 [9] | IC50 [10] | IC50 [11] | IC50 [12] | IC50 [13] | IC50 [14] | IC50 [15] | IC50 [16] | IC50 [17] | IC50 [18] | IC50 [19] | IC50 [20] | further results
COc1cc(C)c(Sc2cnc(NC(=O)c3ccc(CNC(C)C(C)(C)C)cc3)s2)cc1C(=O)N1CCN(C(C)=O)CC1 (stereo not drawn) | > 10.2 µM | > 10.2 µM | > 10.2 µM | > 10.2 µM | > 10.2 µM | > 10.2 µM | > 10.2 µM | > 10.2 µM | > 10.2 µM | 8.92 µM | > 10.2 µM | > 10.2 µM | > 10.2 µM | > 10.2 µM | > 10.2 µM | > 10.2 µM | > 10.2 µM | > 10.2 µM | > 10.2 µM | > 10.2 µM | IC50 [21]: > 10.2 µM; IC50 [22]: > 10.2 µM; IC50 [23]: > 10.2 µM; IC50 [24]: > 10.2 µM
Cc1ccc(NC(=O)c2cccc(C(C)(C)C#N)c2)cc1Nc1ccc2ncn(C)c(=O)c2c1 | > 4 µM | > 4 µM | > 4 µM | > 4 µM | 3.96 µM | > 4 µM | > 4 µM | > 4 µM | > 4 µM | > 4 µM | > 4 µM | > 4 µM | > 4 µM | > 4 µM | > 4 µM | > 4 µM | > 4 µM | > 4 µM | > 4 µM | > 4 µM | IC50 [25]: 0.356 µM; IC50 [26]: > 4 µM; IC50 [21]: > 4 µM; IC50 [22]: > 4 µM; IC50 [23]: > 4 µM; IC50 [24]: > 4 µM
Cc1nc(Nc2ncc(C(=O)Nc3c(C)cccc3Cl)s2)cc(N2CCN(CCO)CC2)n1 [DASATINIB] | > 1.28 µM | > 1.28 µM | > 1.28 µM | > 1.28 µM | > 1.28 µM | 0.00991 µM | > 1.28 µM | > 1.28 µM | > 1.28 µM | > 1.28 µM | > 1.28 µM | > 1.28 µM | > 1.28 µM | > 1.28 µM | > 1.28 µM | > 1.28 µM | > 1.28 µM | > 1.28 µM | > 1.28 µM | > 1.28 µM | IC50 [21]: > 1.28 µM; IC50 [22]: > 1.28 µM; IC50 [23]: > 1.28 µM; IC50 [24]: > 1.28 µM
Cc1n[nH]c2ccc(-c3cncc(OC[C@@H](N)Cc4c[nH]c5ccccc45)c3)cc12 [A-443654] | 0.546 µM | 0.402 µM | > 1.02 µM | > 1.02 µM | 0.346 µM | 0.122 µM | 0.158 µM | > 1.02 µM | > 1.02 µM | 0.112 µM | > 1.02 µM | 0.584 µM | 0.464 µM | 0.392 µM | > 1.02 µM | 0.86 µM | > 1.02 µM | > 1.02 µM | > 1.02 µM | > 1.02 µM | IC50 [21]: > 1.02 µM; IC50 [22]: 0.393 µM; IC50 [23]: > 1.02 µM; IC50 [24]: 0.267 µM
